# From patent publication US5100909A, “Acetylenic imidazoles having central nervous system activity” (The Upjohn Company, priority 1991, dated 1992)
# Tested on: oxotremorine-induced body tremor in mice
# Test: Oxotremorine antagonist assay (body tremor) in mice
# Assay type: in vivo
# Conditions: Mus musculus, ip, i.p. test compound, 20 min before oxotremorine 0.5 mg/kg s.c.; mice; read-out: Oxot. Antagonist Tremor (ED50)
# Method: Oxotremorine antagonist assays were performed on groups of six mice weighing 18-22 g. Each was dosed intraperitoneally with the test compound prepared in 0.25% methylcellulose and were placed in individual cages. Twenty minutes later the mice were injected subcutaneously with 0.5 mg/kg of oxotremorine dissolved in saline. Ten minutes later the mice were scored for body tremor. Doses of the compound under study began at 100 mg/kg and were decreased at a 0.5 log interval until no responders were obtained.
row,Compound,ED50
1,"COC(=O)N(C)CC#CCn1ccnc1 [Compound 26, Methyl [4-(1H-imidazol-1-yl)-2-butynyl]methylcarbamate]",> 100 mg/kg
2,"Cc1cn(CC#CCN2CCCC2=O)c(C)n1 [Compound 4, 1-[4-(2,4-Dimethyl-1H-imidazol-1-yl)-2-butynyl]-2-pyrrolidinone]",54 mg/kg
3,"Br.Cc1cncn1CC#CC(C)N1CCCC1=O (stereo not shown) [Compound 12, 1-[4-(5-Methyl-1H-imidazol-1-yl)-1-methyl-2-butynyl]-2-pyrrolidinone hydrobromide]",25 mg/kg
4,"CC(=O)N(C)CC#CCn1cncc1C [Compound 20, N-[4-(5-Methyl-1H-imidazol-1-yl)-2-butynyl]-N-methylacetamide]",> 100 mg/kg
5,"CC(=O)N(C)C(C)C#CCn1ccnc1C (stereo not shown) [Compound 15, N-[4-(2-Methyl-1H-imidazol-1-yl)-1-methyl-2-butynyl]-N-methylacetamide]",11.8 mg/kg
6,"CC(=O)N(C)C(C)C#CCn1c(C)cnc1C (stereo not shown) [Compound 18, N-[4-(2,5-Dimethyl-1H-imidazol-1-yl)-1-methyl-2butynyl]-N-methylacetamide]",14.2 mg/kg
7,"CCc1nccn1CC#CCN1CCCC1=O [Compound 7, 1-[4-(2-Ethyl-1H-imidazol-1yl)-2-butynyl]-2-pyrrolidinone]",9.7 mg/kg
8,"CC(C#CCn1ccnc1)N1CCCC1=O (stereo not shown) [Compound 6, 1-[4-(1H-Imidazol-1-yl)-1-methyl-2-butynyl]-2-pyrrolidinone]",45 mg/kg
9,"CN(C)C(=O)N(C)CC#CCn1ccnc1 [Compound 24, [4-(1H-Imidazol-1-yl)-2-butynyl]trimethyl urea]",> 100 mg/kg
10,"CC(=O)N(C)C(C)C#CCn1ccnc1 (stereo not shown) [Compound 14, N-[4-(1H-Imidazol-1-yl)-1-methyl-2-butynyl]-N-methylacetamide]",> 100 mg/kg
11,Cc1cncn1CC#CCN1C(=O)CCC1C (stereo not shown) [Compound 13],14 mg/kg
12,"O=C1CCCN1CC#CCn1ccnc1Cl [Compound 8, 1-[4-(2-Chloro-1H-imidazol-1-yl)-2-butynyl]-2-pyrrolidinone]",> 100 mg/kg
13,"Cc1nccn1CC#CCN1CCCC1=O [Compound 2, 1-[4-(2-Methyl-1H-imidazol-1-yl)-2-butynyl]-2-pyrrolidinone]",> 100 mg/kg
14,"CC(=O)N(C)C(C)C#CCn1cnc(C)c1C (stereo not shown) [Compound 16, N-[4-(4,5-Dimethyl-1H-imidazol-1-yl)-1-methyl-2-butynyl]-N-methylacetamide]",25.4 mg/kg
15,"COC(=O)N(C)CC#CCn1cncc1C [Compound 27, Methyl [4-(5-methyl-1H-imidazol-1-yl)-2-butynyl]methyl carbamate]",> 100 mg/kg
16,"CC(=O)N(C)C(C)C#CCN1CCCC1 (stereo not shown) [BM-5, reference compound]",3.7 mg/kg
17,"CC1CCC(=O)N1CC#CCn1ccnc1 (stereo not shown) [Compound 5, 1-[4-(1H-Imidazol-1-yl)-2-butynyl]-5-methyl-2-pyrrolidinone]",20.9 mg/kg

# Tested on: HCl-induced writhing in CF1 mice
# Test: Analgesic activity, HCl writhing protection in mice
# Assay type: in vivo
# Conditions: Mus musculus, sc, 0.25 h, read-out: CNS Id (ED50 mg/kg) HCl Writh. Protect
# Method: For determination of analgesic activity, the test compound was injected subcutaneously into a group of four CF1 mice. Thirty minutes later the mice were injected i.p. with 0.15% HCl, 10 ml./kg. Mice are then placed in plastic boxes and observed for fifteen minutes to record the number of animals failing to writhe.
row,Compound,ED50
1,"Cc1cn(CC#CCN2CCCC2=O)c(C)n1 [Compound 4, 1-[4-(2,4-Dimethyl-1H-imidazol-1-yl)-2-butynyl]-2-pyrrolidinone]",> 50 mg/kg

# Same assay, conditions: Mus musculus, sc, 0.25 h; s.c. test compound, 30 min before 0.15% HCl i.p.; CF1 mice; read-out: CNS Id (ED50 mg/kg) HCl Writh. Protect
row,Compound,ED50
1,"CC(=O)N(C)C(C)C#CCn1ccnc1C (stereo not shown) [Compound 15, N-[4-(2-Methyl-1H-imidazol-1-yl)-1-methyl-2-butynyl]-N-methylacetamide]",> 50 mg/kg
2,"CCc1nccn1CC#CCN1CCCC1=O [Compound 7, 1-[4-(2-Ethyl-1H-imidazol-1yl)-2-butynyl]-2-pyrrolidinone]",> 50 mg/kg
3,"CC(C#CCn1ccnc1)N1CCCC1=O (stereo not shown) [Compound 6, 1-[4-(1H-Imidazol-1-yl)-1-methyl-2-butynyl]-2-pyrrolidinone]",> 50 mg/kg
4,"CC(=O)N(C)C(C)C#CCn1ccnc1 (stereo not shown) [Compound 14, N-[4-(1H-Imidazol-1-yl)-1-methyl-2-butynyl]-N-methylacetamide]",0.9 mg/kg
5,"Cc1nccn1CC#CCN1CCCC1=O [Compound 2, 1-[4-(2-Methyl-1H-imidazol-1-yl)-2-butynyl]-2-pyrrolidinone]",0.1 mg/kg
6,"CC(=O)N(C)C(C)C#CCn1cnc(C)c1C (stereo not shown) [Compound 16, N-[4-(4,5-Dimethyl-1H-imidazol-1-yl)-1-methyl-2-butynyl]-N-methylacetamide]",> 50 mg/kg
7,"CC(=O)N(C)C(C)C#CCN1CCCC1 (stereo not shown) [BM-5, reference compound]",4.4 mg/kg
8,"CC1CCC(=O)N1CC#CCn1ccnc1 (stereo not shown) [Compound 5, 1-[4-(1H-Imidazol-1-yl)-2-butynyl]-5-methyl-2-pyrrolidinone]",> 50 mg/kg

# Tested on: scopolamine-induced amnesia in mice
# Test: Antagonism of amnesia produced by scopolamine, one trial step through passive avoidance
# Assay type: in vivo, mouse
# Conditions: i.p. test compound, scopolamine hydrobromide 1 mg/kg s.c.; retention 24 hrs
# Description: For antagonism of amnesia produced by scopolamine a one trial, step through passive avoidance paradigm was used. In this procedure a mouse was placed on a square platform adjoining darkened chamber. The mouse could enter the chamber through a hole above the platform. Following placement on the platform, the mouse was enclosed by a clear plexiglas cover which mildly restricted movement, limiting the animal to turning around and partial rearing. A sliding door was opened after this, exposing the entrance to the chamber. A timer was started at the same time the door was opened, in order to record latency to enter the chamber. Upon complete entry into the darkened box, the door was closed behind the mouse and a 1 mA, 2 sec, direct current shock applied to the feet of the mouse through the grid floor. The mouse was immediately removed from the chamber and returned to a 24 hr group holding cage.
# Drug testing involved intraperitoneal injection of the test compound followed 15 min later by subcutaneous injection of 1 mg/kg scopolamine hydrobromide. […] The latency for each mouse to enter the chamber was recorded, with a cut-off at 180 sec.
# Median group latencies to enter the chamber during both training and testing were recorded and a Wilcoxon rank sum test applied to data comparing the parallel "scopolamine only" group with all drug combination groups on testing. […]
row,Compound,antagonism of amnesia produced by scopolamine
1,"CC(=O)N(C)C(C)C#CCn1ccnc1C (stereo not shown) [Compound 15, N-[4-(2-Methyl-1H-imidazol-1-yl)-1-methyl-2-butynyl]-N-methylacetamide]",most active
2,"CN(C)C(=O)N(C)CC#CCn1ccnc1 [Compound 24, [4-(1H-Imidazol-1-yl)-2-butynyl]trimethyl urea]",most active

# Tested on: CNS cholinergic receptor
# Test: not given
# Assay type: binding
# Conditions: QNB vs oxotremorine M binding
row,Compound,Ki ratio (Ki QNB/Ki oxotremorine M)
1,"Cc1nccn1CC#CCN1CCCC1=O [Compound 2, 1-[4-(2-Methyl-1H-imidazol-1-yl)-2-butynyl]-2-pyrrolidinone]",< 10

# Same assay, conditions: from Ki QNB/Ki oxotremorine M ratio
row,Compound,cholinergic agonist / antagonist / partial agonist classification by Ki ratio
1,"Cc1nccn1CC#CCN1CCCC1=O [Compound 2, 1-[4-(2-Methyl-1H-imidazol-1-yl)-2-butynyl]-2-pyrrolidinone]",cholinergic antagonists

# Same assay, conditions: tritiated quinuclidine benzylate; read-out: CNS Cholinergic Receptor Binding Assays Ki (nM) QNB
row,Compound,Ki
1,"Cc1cn(CC#CCN2CCCC2=O)c(C)n1 [Compound 4, 1-[4-(2,4-Dimethyl-1H-imidazol-1-yl)-2-butynyl]-2-pyrrolidinone]",160 nM
2,"Br.Cc1cncn1CC#CC(C)N1CCCC1=O (stereo not shown) [Compound 12, 1-[4-(5-Methyl-1H-imidazol-1-yl)-1-methyl-2-butynyl]-2-pyrrolidinone hydrobromide]",16.8 nM
3,"CC(=O)N(C)CC#CCn1cncc1C [Compound 20, N-[4-(5-Methyl-1H-imidazol-1-yl)-2-butynyl]-N-methylacetamide]",172 nM
4,"CC(=O)N(C)C(C)C#CCn1ccnc1C (stereo not shown) [Compound 15, N-[4-(2-Methyl-1H-imidazol-1-yl)-1-methyl-2-butynyl]-N-methylacetamide]",19 nM
5,"CC(=O)N(C)C(C)C#CCn1c(C)cnc1C (stereo not shown) [Compound 18, N-[4-(2,5-Dimethyl-1H-imidazol-1-yl)-1-methyl-2butynyl]-N-methylacetamide]",8.5 nM
6,"CCc1nccn1CC#CCN1CCCC1=O [Compound 7, 1-[4-(2-Ethyl-1H-imidazol-1yl)-2-butynyl]-2-pyrrolidinone]",56.9 nM
7,"CC(C#CCn1ccnc1)N1CCCC1=O (stereo not shown) [Compound 6, 1-[4-(1H-Imidazol-1-yl)-1-methyl-2-butynyl]-2-pyrrolidinone]",566 nM
8,"CC(=O)N(C)C(C)C#CCn1ccnc1 (stereo not shown) [Compound 14, N-[4-(1H-Imidazol-1-yl)-1-methyl-2-butynyl]-N-methylacetamide]",1500 nM
9,Cc1cncn1CC#CCN1C(=O)CCC1C (stereo not shown) [Compound 13],11.6 nM
10,"Cc1nccn1CC#CCN1CCCC1=O [Compound 2, 1-[4-(2-Methyl-1H-imidazol-1-yl)-2-butynyl]-2-pyrrolidinone]",3.8 nM
11,"CC(=O)N(C)C(C)C#CCn1cnc(C)c1C (stereo not shown) [Compound 16, N-[4-(4,5-Dimethyl-1H-imidazol-1-yl)-1-methyl-2-butynyl]-N-methylacetamide]",79 nM
12,"CC1CCC(=O)N1CC#CCn1ccnc1 (stereo not shown) [Compound 5, 1-[4-(1H-Imidazol-1-yl)-2-butynyl]-5-methyl-2-pyrrolidinone]",171 nM

# Biological target: CNS cholinergic receptor
# Test: Cholinergic receptor binding assay, tritiated oxotremorine M ligand
# Conditions: read-out: CNS Cholinergic Receptor Binding Assays Ki (nM) Oxotremorine
row,Compound,Ki
1,"COC(=O)N(C)CC#CCn1ccnc1 [Compound 26, Methyl [4-(1H-imidazol-1-yl)-2-butynyl]methylcarbamate]",120 nM
2,"Cc1cn(CC#CCN2CCCC2=O)c(C)n1 [Compound 4, 1-[4-(2,4-Dimethyl-1H-imidazol-1-yl)-2-butynyl]-2-pyrrolidinone]",68 nM
3,"Br.Cc1cncn1CC#CC(C)N1CCCC1=O (stereo not shown) [Compound 12, 1-[4-(5-Methyl-1H-imidazol-1-yl)-1-methyl-2-butynyl]-2-pyrrolidinone hydrobromide]",5.2 nM
4,"CC(=O)N(C)CC#CCn1cncc1C [Compound 20, N-[4-(5-Methyl-1H-imidazol-1-yl)-2-butynyl]-N-methylacetamide]",3.6 nM
5,"CC(=O)N(C)C(C)C#CCn1ccnc1C (stereo not shown) [Compound 15, N-[4-(2-Methyl-1H-imidazol-1-yl)-1-methyl-2-butynyl]-N-methylacetamide]",1.6 nM
6,"CC(=O)N(C)C(C)C#CCn1c(C)cnc1C (stereo not shown) [Compound 18, N-[4-(2,5-Dimethyl-1H-imidazol-1-yl)-1-methyl-2butynyl]-N-methylacetamide]",6.3 nM
7,"CCc1nccn1CC#CCN1CCCC1=O [Compound 7, 1-[4-(2-Ethyl-1H-imidazol-1yl)-2-butynyl]-2-pyrrolidinone]",29.1 nM
8,"CC(C#CCn1ccnc1)N1CCCC1=O (stereo not shown) [Compound 6, 1-[4-(1H-Imidazol-1-yl)-1-methyl-2-butynyl]-2-pyrrolidinone]",33.5 nM
9,"CN(C)C(=O)N(C)CC#CCn1ccnc1 [Compound 24, [4-(1H-Imidazol-1-yl)-2-butynyl]trimethyl urea]",34 nM
10,"CC(=O)N(C)C(C)C#CCn1ccnc1 (stereo not shown) [Compound 14, N-[4-(1H-Imidazol-1-yl)-1-methyl-2-butynyl]-N-methylacetamide]",12 nM
11,Cc1cncn1CC#CCN1C(=O)CCC1C (stereo not shown) [Compound 13],1.7 nM
12,"O=C1CCCN1CC#CCn1ccnc1Cl [Compound 8, 1-[4-(2-Chloro-1H-imidazol-1-yl)-2-butynyl]-2-pyrrolidinone]",577 nM
13,"Cc1nccn1CC#CCN1CCCC1=O [Compound 2, 1-[4-(2-Methyl-1H-imidazol-1-yl)-2-butynyl]-2-pyrrolidinone]",0.3 nM
14,"CC(=O)N(C)C(C)C#CCn1cnc(C)c1C (stereo not shown) [Compound 16, N-[4-(4,5-Dimethyl-1H-imidazol-1-yl)-1-methyl-2-butynyl]-N-methylacetamide]",42 nM
15,"COC(=O)N(C)CC#CCn1cncc1C [Compound 27, Methyl [4-(5-methyl-1H-imidazol-1-yl)-2-butynyl]methyl carbamate]",200 nM
16,"CC1CCC(=O)N1CC#CCn1ccnc1 (stereo not shown) [Compound 5, 1-[4-(1H-Imidazol-1-yl)-2-butynyl]-5-methyl-2-pyrrolidinone]",23 nM
